{"source": "patent EP0478445B1", "about": "“Composition for cleaning and decontaminating, in particular surgical instruments” (priority 1990, dated 1992)", "key": {"[1]": {"experiment": "Characteristics of the ingredients (pH, solubility)", "assay_type": "physicochemical"}, "[2]": {"test_system": "homme", "conditions": "cited from earlier work"}, "[3]": {"experiment": "Irritancy of the ingredient"}}}
{"molecule": "CCCCCCCCC=CCCCCCCCC1=NCCN1CCO", "note": "[1-hydroxyéthyl-2-heptadécényl-imidazoline]", "values": [{"measurement": "solubilité", "setting": "[1]", "result": "soluble dans la plupart des solvants polaires et apolaires"}]}
{"molecule": "C=O", "note": "[formaldéhyde]", "values": [{"measurement": "larmoiements (inhalation)", "setting": "[2]; man, inhalation", "result": "≥ 0,1 ppm"}, {"measurement": "oedème pulmonaire", "setting": "[2]; man, inhalation", "result": 50, "unit": "ppm"}, {"measurement": "irritation oculaire superficielle", "setting": "[2]; some exposed persons", "result": "≥ 0,4 ppm"}]}
{"molecule": "CCCCCCCCCCCC[N+](C)(C)CC(=O)[O-]", "note": "[lauryldiméthylcarboxyméthylammonium bétaine]", "values": [{"measurement": "irritation des muqueuses et des yeux", "setting": "[3]", "result": "n'irrite ni les muqueuses ni les yeux"}]}
{"molecule": "N|N'(N\"-2-hydroxyéthyl-N\"-carboxyéthylaminoéthyl) amidoacétate|-N,N-diméthyl-N-coco-ammoniumbétaine", "values": [{"measurement": "solubilité", "setting": "[1]", "result": "soluble de façon limpide dans l'eau, l'éthanol, l'isopropanol"}, {"measurement": "pH (à 10%)", "setting": "[1]; at 10%", "result": "8-9"}]}
